Laboratory results published in patent publication US11999806B2, “Broad-spectrum polypeptide against enterovirus and application thereof” (WUHAN INSTITUTE OF VIROLOGY, CHINESE ACADEMY OF SCIENCES, priority 2018, dated 2024).
pIC50: −log10 of the molar value. Several values for one entry are separate records, joined by “and”; a condition that tells them apart may be missing. Equal entries are not always repeated. No end group written: not given here.

Key:
[1] = Cytotoxicity by CCK-8 in RD cells; format: cell-based; conditions: human; for CC50 at 24 h: Table 1 summary, cell line not given, read-out: CC50
Description: (§1) The experiment was performed as follows. • (1) RD cells were plated in a 96-well plate at 100 μl per well. • (2) After the cells reached 70%-80% confluence, the MEM medium containing 10% serum was replaced with a MEM medium containing 2% serum. Then, polypeptide P2 was added to generate gradient concentrations of 0.01 μM, 0.1 μM, 1 μM, 10 μM, and 100 μM (final concentration), respectively. • (3) The test was performed 24 hours after the addition of the polypeptide, and 10 μl of viable cell detection reagent CCK-8 was added to each well and mixed well. • (4) The plate was incubated at 37° C. for 2 h. • (5) The absorbance value at OD450 was measured with a microplate reader.
as §1, with “P1” for “P2”, “concentrations),” for “concentration),”
(§2) RD cells were used to test the antiviral effect of polypeptide P1. When RD cells reached 80% confluence, polypeptide P1 was added at concentrations of 0 μM (control group), 0.01 μM, 0.1 μM, 1 μM, 10 μM, and 100 μM, respectively. Three parallel wells were used for each concentration. The test was carried out 24 hours later, and the cell viability was detected using the CCK-8 kit.
as §1, with “3A-TAT-EP” for “P2”, “concentrations),” for “concentration),”
as §2, with “3A-TAT-EP.” for “P1.”, “3A-TAT-EP” for “P1”
as §1, with “Then, 3A-EP-DRI or 3A-EP-PEG4-PA” for “Then, polypeptide P2”, “and 50” for “and 100”, “(final concentrations),” for “(final concentration),”
as §2, with “polypeptides 3A-EP-DRI and 3A-EP-PEG4-PA.” for “polypeptide P1.”, “3A-EP-DRI or 3A-EP-PEG4-PA” for “P1”, “50” for “100”, “kit. […]” for “kit.”

[2] = tested on: RD cells; assay: Cytotoxicity by CCK-8 in RD cells; format: cell-based; conditions: RD cells; for Cell viability (%): 24 h, CCK-8 4 h (Example 18); for cytotoxicity, result in words: CCK-8, 24 h
Description: as §1
as §1, with “P1” for “P2”, “concentrations),” for “concentration),”
as §2
as §1, with “3A-TAT-EP” for “P2”, “concentrations),” for “concentration),”
as §2, with “3A-TAT-EP.” for “P1.”, “3A-TAT-EP” for “P1”
as §1, with “Then, 3A-EP-DRI or 3A-EP-PEG4-PA” for “Then, polypeptide P2”, “and 50” for “and 100”, “(final concentrations),” for “(final concentration),”
as §2, with “polypeptides 3A-EP-DRI and 3A-EP-PEG4-PA.” for “polypeptide P1.”, “3A-EP-DRI or 3A-EP-PEG4-PA” for “P1”, “50” for “100”, “kit. […]” for “kit.”

[3] = Cytotoxicity by CCK-8 in Vero cells; format: cell-based; conditions: 24 h, read-out: Cell viability (%)
Description: (§3) The experiment was performed as follows. • (1) Vero cells were plated in a 96-well plate at 100 μl per well. • (2) After the cells reached 70%-80% confluence, the MEM medium containing 10% serum was replaced with a MEM medium containing 2% serum. Then, polypeptide BP8, BP10 or BP15 was added to generate gradient concentrations of […], […], 12.5 μM, 25 μM, 50 μM, 100 μM, and 200 μM (final concentrations), respectively. • (3) The samples were collected 24 hours after the addition of the polypeptide, and 10 μl of live cell detection reagent CCK-8 was added to each well and mixed well. • (4) The plate was placed at 37° C. for 4 h. • (5) The absorbance value at OD450 was measured with a microplate reader.

[4] = tested on: Vero cells; assay: Cytotoxicity by CCK-8 in Vero cells; format: cell-based; conditions: for Cell viability (%): 24 h; for cytotoxicity, result in words: CCK-8, 24 h
Description: as §3

[5] = tested on: CVB5; assay: Anti-CVB5 effect in RD cells, qRT-PCR; format: cell-based, Coxsackievirus B5; conditions: Example 20, read-out: IC50 against CVB5
Description: • (1) […] were plated in a 24-well cell plate. • (2) After the cells reached 70%-80% confluence, the MEM medium containing 10% serum was replaced with a MEM medium containing 2% serum (0.5 ml/well).

[6] = RD cells, 24 h, CCK-8 4 h (Example 18), read-out: Cell viability (%)

Q: Which viability at 24 h, 3.0625 µM [1, 6] does the source give for YGRKKRRQRRRGSGEAVREYCKEK [BP10] here?
A: Its viability at 24 h, 3.0625 µM is 97.7%.

Q: What about the viability at 24 h, 6.125 µM [1, 6] of the same compound?
A: The viability at 24 h, 6.125 µM was 98.5%.

Q: What about the viability at 24 h, 12.5 µM [1, 6] of the same compound?
A: The viability at 24 h, 12.5 µM was 94.8%.

Q: And the viability at 24 h, 25 µM [1, 6]?
A: Its viability at 24 h, 25 µM is 109%.

Q: And the viability at 24 h, 50 µM [1, 6]?
A: Its viability at 24 h, 50 µM is 109%.

Q: And the viability at 24 h, 100 µM [1, 6]?
A: Its viability at 24 h, 100 µM is 107%.

Q: And the viability at 24 h, 200 µM ([1]; RD cells, 200 μM, 24 h, CCK-8 4 h (Example 18), read-out: Cell viability (%))?
A: The viability at 24 h, 200 µM was 79.7%.

Q: What about the CC50 at 24 h [1] of the same compound?
A: The CC50 at 24 h was > 200 µM.

Q: What about the “Cell viability (%)” value ([2]; 3.0625 μM) of the same compound?
A: The value was 98.99% and 103.5309%.

Q: And the “Cell viability (%)” value ([2]; 6.125 μM)?
A: The value was 93.25% and 92.62%.

Q: And the “Cell viability (%)” value ([2]; 12.5 μM)?
A: Its value is 97.35% and 100.8827%.

Q: What about the “Cell viability (%)” value ([2]; 25 μM) of the same compound?
A: Its value is 99.56% and 96.2169%.

Q: What about the “Cell viability (%)” value ([2]; 50 μM) of the same compound?
A: The value was 115.4477% and 116.3934%.

Q: And the “Cell viability (%)” value ([2]; 100 μM)?
A: The value was 112.232% and 114.3758%.

Q: And the “Cell viability (%)” value ([2]; 200 μM)?
A: Its value is 85.18% and 97.54%.

Q: What about the “cytotoxicity, result in words” value [2] of the same compound?
A: Its value is “not toxic to cells within 200 μM”.

Q: What about the viability at 24 h, 3.0625 µM [3] of the same compound?
A: The viability at 24 h, 3.0625 µM was 107%.

Q: What about the viability at 24 h, 6.125 µM [3] of the same compound?
A: Its viability at 24 h, 6.125 µM is 119%.

Q: What about the viability at 24 h, 12.5 µM [3] of the same compound?
A: Its viability at 24 h, 12.5 µM is 122%.

Q: What about the viability at 24 h, 25 µM [3] of the same compound?
A: The viability at 24 h, 25 µM was 117%.

Q: What about the viability at 24 h, 50 µM [3] of the same compound?
A: The viability at 24 h, 50 µM was 109%.

Q: What about the viability at 24 h, 100 µM [3] of the same compound?
A: Its viability at 24 h, 100 µM is 92.8%.

Q: What about the viability at 24 h, 200 µM [3] of the same compound?
A: Its viability at 24 h, 200 µM is 83.1%.

Q: What about the “Cell viability (%)” value ([4]; 3.0625 μM) of the same compound?
A: Its value is 106.2952% and 107.1965%.

Q: And the “Cell viability (%)” value ([4]; 6.125 μM)?
A: Its value is 119.236% and 118.9785%.

Q: What about the “Cell viability (%)” value ([4]; 12.5 μM) of the same compound?
A: Its value is 120.8456% and 123.9359%.

Q: And the “Cell viability (%)” value ([4]; 25 μM)?
A: Its value is 117.3689% and 116.0169%.

Q: And the “Cell viability (%)” value ([4]; 50 μM)?
A: Its value is 118.399% and 120.0086%.

Q: And the “Cell viability (%)” value ([4]; 100 μM)?
A: The value was 92.32% and 94.06%.

Q: What about the “Cell viability (%)” value ([4]; 200 μM) of the same compound?
A: The value was 86.72% and 82.22%.

Q: And the “cytotoxicity, result in words” value [4]?
A: Its value is “not toxic to cells within 200 μM”.

Q: And the pIC50 [5]?
A: The pIC50 was 5.87.

Q: For `CC(C)C[C@H](NC(=O)[C@H](Cc1c[nH]c2ccccc12)NC(=O)CNC(=O)[C@H](CCCCN)NC(=O)[C@H](CCC(=O)O)NC(=O)[C@H](CCCCN)NC(=O)[C@H](CS)NC(=O)[C@H](Cc1ccc(O)cc1)NC(=O)[C@H](CCC(=O)O)NC(=O)[C@H](CCCNC(=N)N)NC(=O)[C@@H](NC(=O)[C@H](C)NC(=O)[C@H](CCC(=O)O)NC(=O)CNC(=O)[C@H](CO)NC(=O)CNC(=O)[C@H](CCCNC(=N)N)NC(=O)[C@H](CCCNC(=N)N)NC(=O)[C@H](CCCNC(=N)N)NC(=O)[C@H](CCC(N)=O)NC(=O)[C@H](CCCNC(=N)N)NC(=O)[C@H](CCCNC(=N)N)NC(=O)[C@H](CCCCN)NC(=O)[C@H](CCCCN)NC(=O)[C@H](CCCNC(=N)N)NC(=O)CNC(=O)[C@@H](N)Cc1ccc(O)cc1)C(C)C)C(=O)N[C@H](C(=O)N1CCC[C@H]1C(=O)O)C(C)C` [BP15], which viability at 24 h, 3.0625 µM [1, 6] is on record?
A: Its viability at 24 h, 3.0625 µM is 91%.

Q: And the viability at 24 h, 6.125 µM [1, 6]?
A: The viability at 24 h, 6.125 µM was 104%.

Q: And the viability at 24 h, 12.5 µM [1, 6]?
A: Its viability at 24 h, 12.5 µM is 96.7%.

Q: And the viability at 24 h, 25 µM [1, 6]?
A: The viability at 24 h, 25 µM was 96.7%.

Q: What about the viability at 24 h, 50 µM [1, 6] of the same compound?
A: The viability at 24 h, 50 µM was 107%.

Q: What about the viability at 24 h, 100 µM [1, 6] of the same compound?
A: Its viability at 24 h, 100 µM is 96.3%.

Q: And the CC50 at 24 h [1]?
A: The CC50 at 24 h was > 100 µM.

Q: And the “Cell viability (%)” value ([2]; 3.0625 μM)?
A: The value was 85.77% and 91.09%.

Q: And the “Cell viability (%)” value ([2]; 6.125 μM)?
A: Its value is 105.7678% and 97.72%.

Q: What about the “Cell viability (%)” value ([2]; 12.5 μM) of the same compound?
A: The value was 98.76% and 95.25%.

Q: What about the “Cell viability (%)” value ([2]; 25 μM) of the same compound?
A: Its value is 92.912% and 95.05%.

Q: And the “Cell viability (%)” value ([2]; 50 μM)?
A: Its value is 103.6251% and 100.2489%.

Q: What about the “Cell viability (%)” value ([2]; 100 μM) of the same compound?
A: Its value is 99.4048% and 104.9237%.

Q: And the “cytotoxicity, result in words” value [2]?
A: The value was “not toxic to cells within 100 μM”.

Q: What about the viability at 24 h, 3.0625 µM [3] of the same compound?
A: Its viability at 24 h, 3.0625 µM is 108%.

Q: And the viability at 24 h, 6.125 µM [3]?
A: The viability at 24 h, 6.125 µM was 125%.

Q: What about the viability at 24 h, 12.5 µM [3] of the same compound?
A: Its viability at 24 h, 12.5 µM is 122%.

Q: What about the viability at 24 h, 25 µM [3] of the same compound?
A: The viability at 24 h, 25 µM was 116%.

Q: What about the viability at 24 h, 50 µM [3] of the same compound?
A: Its viability at 24 h, 50 µM is 112%.

Q: What about the viability at 24 h, 100 µM [3] of the same compound?
A: The viability at 24 h, 100 µM was 75.8%.

Q: And the viability at 24 h, 200 µM [3]?
A: Its viability at 24 h, 200 µM is 20%.

Q: What about the “Cell viability (%)” value ([4]; 3.0625 μM) of the same compound?
A: The value was 105.9733% and 109.128%.

Q: And the “Cell viability (%)” value ([4]; 6.125 μM)?
A: The value was 127.0907% and 124.0647%.

Q: What about the “Cell viability (%)” value ([4]; 12.5 μM) of the same compound?
A: The value was 120.3949% and 122.777%.

Q: What about the “Cell viability (%)” value ([4]; 25 μM) of the same compound?
A: Its value is 111.0595% and 118.2059%.

Q: What about the “Cell viability (%)” value ([4]; 50 μM) of the same compound?
A: Its value is 109.4499% and 102.9473%.

Q: What about the “Cell viability (%)” value ([4]; 100 μM) of the same compound?
A: Its value is 87.11% and 76.81%.

Q: What about the “Cell viability (%)” value ([4]; 200 μM) of the same compound?
A: Its value is 13.65% and 13.13% and 13.4559%.

Q: And the “cytotoxicity, result in words” value [4]?
A: The value was “not toxic to cells within 100 μM”.

Q: And the pIC50 [5]?
A: Its pIC50 is 5.17.
